According to US20230109708A1, “Cellular Uptake” (Axcess (UK) Ltd, priority 2020, published 2023):
Like-named read-outs stand apart in the source and are kept apart here.

Tests used:
Caco-2 cells [1] = assay: Uptake of FITC-insulin into Caco-2 cells, confocal microscope (Example 1); assay type: cell-based; conditions: for uptake of FITC-insulin into cells (photomicrographs): FITC-insulin 100 ug/ml alone or with sodium chenodeoxycholate 1 or 2 mg/ml, 37° C. half an hour
Procedure: The supernatant was then removed, replaced with 0.5 ml of 4% paraformaldehyde solution, and incubated at room temperature for 15 minutes. The paraformaldehyde was then removed, the wells were washed three times with phosphate-buffered saline, and the coverslips then treated with mounting medium and viewed under a confocal microscope. Images are set out in FIG. 1.

Caco-2 cells [2] = assay: FITC-albumin uptake after chlorpromazine preincubation, fluorescence microscope score (Example 4); assay type: cell-based; design: fluorescence score, uptake of FITC-albumin: key to the marks not given beside the values; conditions: for effect of preincubation with inhibitor on chenodeoxycholate-stimulated uptake of FITC-albumin: preincubation ten minutes, amiloride and nystatin in similar experiments
Caco-2 cells [3] = assay: FITC-albumin uptake with chenodeoxycholate and EDTA, DTPA or EGTA, fluorescence microscope score (Example 9); assay type: cell-based; conditions: 30 minutes; for fluorescence score, uptake of FITC-albumin: EDTA, DTPA or EGTA 1 mg/ml where present; for enhancement of uptake over and above that seen with chenodeoxycholate alone: agent added at 1 mg/ml to chenodeoxycholate
Caco-2 cells [4] = assay: FITC-hGH uptake with chenodeoxycholate, cells in suspension, plate reader (Example 13); assay type: cell-based; conditions: FITC-hGH 100 ug/ml; chenodeoxycholate at different concentrations; 15 minutes
Procedure: 1 ml of FITC-hGH alone (concentration 100 ug/ml) or FITC-hGH containing chenodeoxycholate at different concentrations were then added.

Caco-2 cells [5] = test system: Caco-2 cells
Caco-2 cells [6] = test system: Caco-2 cells; design: key to the marks not given beside the values; conditions: twenty minutes, PG 2:1 wt:wt where present
Caco-2 cells [7] = conditions: for enhancement of uptake of the protein (FITC-albumin): chenodeoxycholate 0.5 mg/ml, EDTA or orthophenanthroline 5 mg/ml, alone or in combination
Caco-2 cells [8] = conditions: chenodeoxycholate and EDTA alone or in combination at 1 mg/ml; 15 minutes; cells in suspension
IEC6 cell line = conditions: chenodeoxycholate 0.5 mg/ml; different concentrations of EDTA; 15 minutes
Caco-2 cells [9] = assay: Uptake of FITC-albumin or FITC-Casein with chenodeoxycholate, fluorescence microscope score (Example 6); assay type: cell-based; conditions: FITC-labelled protein 100 ug/ml with chenodeoxycholate
Excerpt: The experiment was repeated on two separate occasions on different days.

[10] = column Concentration of Chenodeoxycholate 0.5 mg/ml, sample alone, no preincubation
[11] = column Concentration of Chenodeoxycholate 1.0 mg/ml, sample alone, no preincubation
[12] = column Concentration of Chenodeoxycholate 1.5 mg/ml, sample alone, no preincubation

C[C@H](CCC(=O)O)[C@H]1CC[C@H]2[C@@H]3[C@H](O)C[C@@H]4C[C@H](O)CC[C@]4(C)[C@H]3CC[C@]12C [Cheno alone, sodium chenodeoxycholate]
uptake of FITC-insulin into cells (photomicrographs) (Caco-2 cells [1]): uptake is enhanced
fluorescent material in vacuoles within the cells (Caco-2 cells [1]; FITC-insulin 100 ug/ml, higher concentration of the bile salt (2 mg/ml)): clearly being seen in vacuoles within the cells
fluorescence score, uptake of FITC-albumin (Caco-2 cells [2]; Cheno 1.0 mg/ml, Chlorpromazine 0 mg/ml): +++
fluorescence score, uptake of FITC-albumin (Caco-2 cells [2]; Cheno 1.5 mg/ml, Chlorpromazine 0 mg/ml): ++
fluorescence score, uptake of FITC-albumin (Caco-2 cells [3]; Chenodeoxycholate 0.5 mg/ml): +
fluorescence score, uptake of FITC-albumin (Caco-2 cells [3]; Chenodeoxycholate 1 mg/ml): ++
uptake of hGH (FITC-hGH) into cells (Caco-2 cells [4]): enhances the uptake of hGH into cells in a dose-dependent manner
fluorescence score, uptake of FITC-albumin (Caco-2 cells [5]; [10]): +
fluorescence score, uptake of FITC-albumin (Caco-2 cells [5]; [11]): +++
fluorescence score, uptake of FITC-albumin (Caco-2 cells [5]; [12]): +++
fluorescence score, uptake of FITC-albumin (Caco-2 cells [6]; Concentration of Bile Salt 1.0 mg/ml): ++
fluorescence score, uptake of FITC-albumin (Caco-2 cells [6]; Concentration of Bile Salt 1.5 mg/ml): +++
fluorescence score, uptake of FITC-albumin (Caco-2 cells [7]; Chenodeoxycholate 0.5 mg/ml, EDTA or orthophenanthroline 5 mg/ml where present, twenty-five minutes): +
enhancement of uptake of the protein (FITC-albumin) (Caco-2 cells [7]): neither chenodeoxycholate nor EDTA were able to enhance uptake
enhancement of uptake of FITC-albumin (Caco-2 cells [8]): too low to enhance uptake

CN(C)CCCN1c2ccccc2Sc2ccc(Cl)cc21 [Chlorpromazine, chlorpromazine]
fluorescence score, uptake of FITC-albumin (Caco-2 cells [2]; 5000 ug/mL): ++
effect of preincubation with inhibitor on chenodeoxycholate-stimulated uptake of FITC-albumin (Caco-2 cells [2]): concentration-dependent inhibition of uptake

O=C(O)CN(CCN(CC(=O)O)CC(=O)O)CCN(CC(=O)O)CC(=O)O [DTPA]
enhancement of uptake over and above that seen with chenodeoxycholate alone (Caco-2 cells [3]): not

O=C(O)CN(CCN(CC(=O)O)CC(=O)O)CC(=O)O [EDTA]
enhancement of uptake of BSA by chenodeoxycholate in IEC6 cells (IEC6 cell line): augmented by EDTA in a dose-dependent fashion

O=C(O)CN(CCOCCOCCN(CC(=O)O)CC(=O)O)CC(=O)O [EGTA]
enhancement of uptake over and above that seen with chenodeoxycholate alone (Caco-2 cells [3]): not

C[C@H](CCC(=O)O)[C@H]1CC[C@H]2[C@@H]3[C@@H](O)C[C@@H]4C[C@H](O)CC[C@]4(C)[C@H]3CC[C@]12C [Urso, sodium ursodeoxycholate]
fluorescence score, uptake of FITC-albumin (Caco-2 cells [5]; Urso preincubation 0.1 mg/ml, Chenodeoxycholate 0.5 mg/ml): −
fluorescence score, uptake of FITC-albumin (Caco-2 cells [5]; Urso preincubation 0.1 mg/ml, Chenodeoxycholate 1.0 mg/ml): ++
fluorescence score, uptake of FITC-albumin (Caco-2 cells [5]; Urso preincubation 0.1 mg/ml, Chenodeoxycholate 1.5 mg/ml): ++
fluorescence score, uptake of FITC-albumin (Caco-2 cells [5]; Urso preincubation 0.5 mg/ml, Chenodeoxycholate 0.5 mg/ml): −
fluorescence score, uptake of FITC-albumin (Caco-2 cells [5]; Urso preincubation 0.5 mg/ml, Chenodeoxycholate 1.0 mg/ml): +
fluorescence score, uptake of FITC-albumin (Caco-2 cells [5]; Urso preincubation 0.5 mg/ml, Chenodeoxycholate 1.5 mg/ml): ++
fluorescence score, uptake of FITC-albumin (Caco-2 cells [5]; [10]): −
fluorescence score, uptake of FITC-albumin (Caco-2 cells [5]; [11]): −
fluorescence score, uptake of FITC-albumin (Caco-2 cells [5]; [12]): −
effect of preincubation on chenodeoxycholate-stimulated uptake of FITC-albumin (Caco-2 cells [5]; preincubation ten minutes): concentration-dependent inhibition of uptake

N=C(N)NC(=O)c1nc(Cl)c(N)nc1N [amiloride]
effect of preincubation with inhibitor on chenodeoxycholate-stimulated uptake of FITC-albumin (Caco-2 cells [2]): no reduction in uptake

C[C@@H]1[C@H](O)[C@@H](C)/C=C/C=C/CC/C=C/C=C/C=C/C=C/C(O[C@H]2O[C@H](C)[C@@H](O)[C@H](N)[C@@H]2O)CC2O[C@](O)(CC(O)C(O)CCC(O)CC(O)CC(O)CC(=O)O[C@H]1C)CC(O)C2C(=O)O (some centres unmarked) [nystatin]
effect of preincubation with inhibitor on chenodeoxycholate-stimulated uptake of FITC-albumin (Caco-2 cells [2]): no reduction in uptake

c1cnc2c(c1)ccc1cccnc12 [o-phenanthroline]
enhancement of uptake of the protein (FITC-albumin) (Caco-2 cells [7]): does not have this effect

Casein
extent of chenodeoxycholate-mediated uptake of the protein (Caco-2 cells [9]): uptake of a similar extent

insulin: FITC-insulin, fluorescent labelled protein cargo
uptake of FITC-insulin into cells (photomicrographs) (Caco-2 cells [1]): very little uptake
